According to ChEMBL document CHEMBL3352741, “Discovery of VU0431316: a negative allosteric modulator of mGlu5 with activity in a mouse model of anxiety” (Bioorg Med Chem Lett, 2014):
Calls of active or inactive are those of the source. The rule behind the calls is not given here.

How the values were obtained:
[1] = biological target: T1, Metabotropic glutamate receptor 5 (Rattus norvegicus, UniProt P31424); assay: Negative allosteric modulator activity at rat mGlu5 expressed in HEK293A cells assessed as reduction in glutamate-induced calcium mobilization; format: functional, cell-based, HEK293-A
[2] = biological target: Metabotropic glutamate receptor 5 (Rattus norvegicus) (UniProt P31424); assay: Negative allosteric modulator activity at rat mGlu5 expressed in HEK293A cells assessed as reduction in 100 uM glutamate-induced calcium mobilization at 30 uM; format: functional, cell-based; conditions: HEK293-A
[3] = Drug level in Sprague-Dawley rat hepatic portal vein at 10 mg/kg, po administered as single dose after 60 mins by LC-MS/MS method; format: ADME, organism-based; set-up: dose 10 mg/kg, route oral; conditions: read-out: Drug uptake
[4] = biological target: Cytochrome P450 3A4 (Homo sapiens, UniProt P08684); assay: Inhibition of CYP3A4 in pooled human liver microsomes in presence of NADPH; format: ADME
[5] = Volume of distribution at steady state in Sprague-Dawley rat at 1 mg/kg, iv after 2 to 1440 mins by LC-MS/MS method; format: ADME, organism-based; set-up: dose 1 mg/kg, route intravenous; conditions: in vivo, read-out: Vdss
[6] = test system: Plasma; assay: Fraction unbound in human plasma by equilibrium dialysis method; format: ADME, cell-free
[7] = Apparent permeability from basolateral to apical side in human Caco2 cells; format: ADME, cell-based; conditions: caco-2
[8] = Plasma concentration in Harlan CD1 mouse at 30 mg/kg, ip after 60 mins; format: ADME, organism-based; set-up: dose 30 mg/kg, route intraperitoneal
[9] = Plasma concentration in Harlan CD1 mouse at 30 mg/kg, ip after 15 mins; format: ADME, organism-based; set-up: dose 30 mg/kg, route intraperitoneal
[10] = test system: Brain; assay: Fraction unbound in mouse brain homogenates by equilibrium dialysis method; format: ADME, tissue-based; conditions: brain homogenate
[11] = test system: Plasma; assay: Fraction unbound in cynomolgus monkey plasma by equilibrium dialysis method; format: ADME, cell-free, Macaca fascicularis
[12] = biological target: Cytochrome P450 2C9 (Homo sapiens, UniProt P11712); assay: Inhibition of CYP2C9 in pooled human liver microsomes in presence of NADPH; format: ADME
[13] = test system: MDCK; assay: Apparent permeability from basolateral to apical side in wild type MDCK cells; format: ADME, cell-based, Canis lupus familiaris; conditions: dog
[14] = Apparent permeability from apical to basolateral side in human Caco2 cells; format: ADME, cell-based; conditions: caco-2
[15] = Oral bioavailability in Sprague-Dawley rat at 10 mg/kg administered as single dose after 15 to 1440 mins by LC-MS/MS method; format: ADME, organism-based; conditions: in vivo
[16] = biological target: Metabotropic glutamate receptor 2 (Homo sapiens) (UniProt Q14416); assay: Activity at mGlu2 (unknown origin) expressed in HEK293-GIRK cells at 10 uM by thallium flux assay; format: cell-based
[17] = biological target: Metabotropic glutamate receptor 1 (Rattus norvegicus) (UniProt P23385); assay: Activity at rat mGlu1 expressed in HEK293 cells at 10 uM by calcium flux assay; format: functional, cell-based
[18] = biological target: Metabotropic glutamate receptor 6 (Homo sapiens) (UniProt O15303); assay: Activity at mGlu6 (unknown origin) expressed in HEK293-GIRK cells at 10 uM by thallium flux assay; format: cell-based
[19] = Plasma concentration in Sprague-Dawley rat at 10 mg/kg, po administered as single dose after 60 mins by LC-MS/MS method; format: ADME, organism-based; set-up: dose 10 mg/kg, route oral
[20] = Tmax in Sprague-Dawley rat at 10 mg/kg, po administered as single dose after 15 to 1440 mins by LC-MS/MS method; format: ADME, organism-based; set-up: dose 10 mg/kg, route oral; conditions: in vivo
[21] = test system: Mus musculus; assay: In vivo mGlu5 negative allosteric modulator activity in Harlan CD1 mouse marble burying model of anxiety assessed as reduction in marble burying at => 10 mg/kg, ip dosed 15 mins before test; format: functional, organism-based; set-up: dose 10 mg/kg
[22] = Drug level in Harlan CD1 mouse brain at 30 mg/kg, ip after 60 mins; format: ADME, organism-based; set-up: dose 30 mg/kg, route intraperitoneal; conditions: read-out: Drug uptake
[23] = biological target: Metabotropic glutamate receptor 7 (Homo sapiens) (UniProt Q14831); assay: Activity at mGlu7 (unknown origin) expressed in HEK293-GIRK cells at 10 uM by thallium flux assay; format: cell-based
[24] = biological target: T1, Metabotropic glutamate receptor 5; assay: Displacement of [3H]methoxyPEPy from rat mGlu5 expressed in HEK293A cells after 1 hr by scintillation counting method; format: cell-based, HEK293-A
[25] = Drug level in Harlan CD1 mouse brain at 30 mg/kg, ip after 15 mins; format: ADME, organism-based; set-up: dose 30 mg/kg, route intraperitoneal; conditions: read-out: Drug uptake
[26] = test system: Plasma; assay: Fraction unbound in rat plasma by equilibrium dialysis method; format: ADME, cell-free
[27] = Plasma concentration in Harlan CD1 mouse at 30 mg/kg, ip after 30 mins; format: ADME, organism-based; set-up: dose 30 mg/kg, route intraperitoneal
[28] = biological target: Metabotropic glutamate receptor 8 (Homo sapiens) (UniProt O00222); assay: Activity at mGlu8 (unknown origin) expressed in HEK293-GIRK cells at 10 uM by thallium flux assay; format: cell-based
[29] = AUC in Sprague-Dawley rat at 1 mg/kg, iv after 2 to 1440 mins by LC-MS/MS method; format: ADME, organism-based; set-up: dose 1 mg/kg, route intravenous; conditions: plasma
[30] = Drug level in Harlan CD1 mouse brain at 30 mg/kg, ip after 30 mins; format: ADME, organism-based; set-up: dose 30 mg/kg, route intraperitoneal; conditions: read-out: Drug uptake
[31] = Clearance in Sprague-Dawley rat at 1 mg/kg, iv after 2 to 1440 mins by LC-MS/MS method; format: ADME, organism-based; set-up: dose 1 mg/kg, route intravenous; conditions: in vivo
[32] = Half life in Sprague-Dawley rat at 1 mg/kg, iv after 2 to 1440 mins by LC-MS/MS method; format: ADME, organism-based; set-up: dose 1 mg/kg, route intravenous; conditions: in vivo
[33] = biological target: T2, Cytochrome P450 1A2 (Homo sapiens, UniProt P05177); assay: Inhibition of CYP1A2 in pooled human liver microsomes in presence of NADPH; format: ADME
T2 sequence (P05177 whole entry): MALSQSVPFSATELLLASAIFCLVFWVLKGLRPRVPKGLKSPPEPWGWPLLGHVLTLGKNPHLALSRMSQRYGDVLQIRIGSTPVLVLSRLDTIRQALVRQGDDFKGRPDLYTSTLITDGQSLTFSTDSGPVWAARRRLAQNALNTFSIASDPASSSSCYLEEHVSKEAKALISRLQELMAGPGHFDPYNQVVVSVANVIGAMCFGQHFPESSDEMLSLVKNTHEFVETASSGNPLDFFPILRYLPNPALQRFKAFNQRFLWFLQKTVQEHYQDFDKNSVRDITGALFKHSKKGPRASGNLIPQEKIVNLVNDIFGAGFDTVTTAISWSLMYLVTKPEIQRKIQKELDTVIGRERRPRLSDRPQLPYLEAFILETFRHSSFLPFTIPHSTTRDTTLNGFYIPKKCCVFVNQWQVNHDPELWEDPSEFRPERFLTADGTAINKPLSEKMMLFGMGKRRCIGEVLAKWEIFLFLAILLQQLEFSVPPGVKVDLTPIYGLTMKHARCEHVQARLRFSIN

[34] = Efflux ratio in human Caco2 cells; format: ADME, cell-based; conditions: caco-2
[35] = Drug level in Sprague-Dawley rat brain at 10 mg/kg, po administered as single dose after 60 mins by LC-MS/MS method; format: ADME, organism-based; set-up: dose 10 mg/kg, route oral; conditions: read-out: Drug uptake
[36] = biological target: Metabotropic glutamate receptor 5 (Homo sapiens, UniProt P41594); assay: Negative allosteric modulator activity at human mGlu5 assessed as reduction in glutamate-induced calcium mobilization; format: functional
[37] = Cmax in Sprague-Dawley rat at 10 mg/kg, po administered as single dose after 15 to 1440 mins by LC-MS/MS method; format: ADME, organism-based; set-up: dose 10 mg/kg, route oral; conditions: in vivo
[38] = AUC in Sprague-Dawley rat at 10 mg/kg, po administered as single dose after 15 to 1440 mins by LC-MS/MS method; format: ADME, organism-based; set-up: dose 10 mg/kg, route oral; conditions: plasma
[39] = test system: MDCK; assay: Efflux ratio in wild type MDCK cells; format: ADME, cell-based, Canis lupus familiaris; conditions: dog
[40] = test system: MDCK; assay: Apparent permeability from apical to basolateral side in wild type MDCK cells; format: ADME, cell-based, Canis lupus familiaris; conditions: dog
[41] = biological target: Metabotropic glutamate receptor 3 (Homo sapiens) (UniProt Q14832); assay: Activity at mGlu3 (unknown origin) expressed in HEK293-GIRK cells at 10 uM by thallium flux assay; format: cell-based
[42] = biological target: Cytochrome P450 2D6 (Homo sapiens, UniProt P10635); assay: Inhibition of CYP2D6 in pooled human liver microsomes in presence of NADPH; format: ADME
[43] = biological target: Metabotropic glutamate receptor 4 (Homo sapiens) (UniProt Q14833); assay: Activity at mGlu4 (unknown origin) expressed in HEK293-GIRK cells at 10 uM by thallium flux assay; format: cell-based
[44] = Ratio of drug level in brain to plasma in Sprague-Dawley rat at 10 mg/kg, po administered as single dose after 60 mins by LC-MS/MS method; format: ADME, organism-based; set-up: dose 10 mg/kg, route oral; conditions: read-out: BPR

Chain of Metabotropic glutamate receptor 5 (Rattus norvegicus) (P31424 21-1203 limits assumed): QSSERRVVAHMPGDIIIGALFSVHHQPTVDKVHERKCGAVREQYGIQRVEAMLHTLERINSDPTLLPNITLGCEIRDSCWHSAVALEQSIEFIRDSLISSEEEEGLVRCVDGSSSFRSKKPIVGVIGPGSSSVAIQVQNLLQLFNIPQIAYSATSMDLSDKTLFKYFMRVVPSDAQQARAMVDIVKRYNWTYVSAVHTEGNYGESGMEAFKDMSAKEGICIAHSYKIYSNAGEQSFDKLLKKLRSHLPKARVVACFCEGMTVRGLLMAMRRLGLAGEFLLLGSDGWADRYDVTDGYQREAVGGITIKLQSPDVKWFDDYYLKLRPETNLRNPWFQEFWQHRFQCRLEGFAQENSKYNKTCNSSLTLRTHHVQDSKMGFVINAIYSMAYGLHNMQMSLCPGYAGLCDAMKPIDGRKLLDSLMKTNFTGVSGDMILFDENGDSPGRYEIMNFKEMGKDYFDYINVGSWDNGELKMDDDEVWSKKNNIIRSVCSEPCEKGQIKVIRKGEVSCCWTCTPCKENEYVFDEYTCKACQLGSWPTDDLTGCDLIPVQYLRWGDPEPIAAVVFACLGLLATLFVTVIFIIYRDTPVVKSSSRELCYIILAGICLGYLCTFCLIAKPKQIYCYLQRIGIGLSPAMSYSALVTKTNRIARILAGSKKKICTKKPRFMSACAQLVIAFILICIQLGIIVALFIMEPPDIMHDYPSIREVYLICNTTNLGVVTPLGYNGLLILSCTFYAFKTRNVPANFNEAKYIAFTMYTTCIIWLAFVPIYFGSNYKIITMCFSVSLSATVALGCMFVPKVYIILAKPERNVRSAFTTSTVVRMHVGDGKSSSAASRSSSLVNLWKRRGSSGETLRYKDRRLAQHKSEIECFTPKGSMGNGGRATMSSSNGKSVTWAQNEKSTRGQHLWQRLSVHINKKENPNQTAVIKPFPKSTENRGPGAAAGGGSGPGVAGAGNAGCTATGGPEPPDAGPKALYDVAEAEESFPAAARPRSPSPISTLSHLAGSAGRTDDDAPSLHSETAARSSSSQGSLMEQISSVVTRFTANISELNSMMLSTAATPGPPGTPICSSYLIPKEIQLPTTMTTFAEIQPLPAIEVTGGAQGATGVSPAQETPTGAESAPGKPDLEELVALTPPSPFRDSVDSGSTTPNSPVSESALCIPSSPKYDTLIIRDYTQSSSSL
T1 sequence (P31424 whole entry): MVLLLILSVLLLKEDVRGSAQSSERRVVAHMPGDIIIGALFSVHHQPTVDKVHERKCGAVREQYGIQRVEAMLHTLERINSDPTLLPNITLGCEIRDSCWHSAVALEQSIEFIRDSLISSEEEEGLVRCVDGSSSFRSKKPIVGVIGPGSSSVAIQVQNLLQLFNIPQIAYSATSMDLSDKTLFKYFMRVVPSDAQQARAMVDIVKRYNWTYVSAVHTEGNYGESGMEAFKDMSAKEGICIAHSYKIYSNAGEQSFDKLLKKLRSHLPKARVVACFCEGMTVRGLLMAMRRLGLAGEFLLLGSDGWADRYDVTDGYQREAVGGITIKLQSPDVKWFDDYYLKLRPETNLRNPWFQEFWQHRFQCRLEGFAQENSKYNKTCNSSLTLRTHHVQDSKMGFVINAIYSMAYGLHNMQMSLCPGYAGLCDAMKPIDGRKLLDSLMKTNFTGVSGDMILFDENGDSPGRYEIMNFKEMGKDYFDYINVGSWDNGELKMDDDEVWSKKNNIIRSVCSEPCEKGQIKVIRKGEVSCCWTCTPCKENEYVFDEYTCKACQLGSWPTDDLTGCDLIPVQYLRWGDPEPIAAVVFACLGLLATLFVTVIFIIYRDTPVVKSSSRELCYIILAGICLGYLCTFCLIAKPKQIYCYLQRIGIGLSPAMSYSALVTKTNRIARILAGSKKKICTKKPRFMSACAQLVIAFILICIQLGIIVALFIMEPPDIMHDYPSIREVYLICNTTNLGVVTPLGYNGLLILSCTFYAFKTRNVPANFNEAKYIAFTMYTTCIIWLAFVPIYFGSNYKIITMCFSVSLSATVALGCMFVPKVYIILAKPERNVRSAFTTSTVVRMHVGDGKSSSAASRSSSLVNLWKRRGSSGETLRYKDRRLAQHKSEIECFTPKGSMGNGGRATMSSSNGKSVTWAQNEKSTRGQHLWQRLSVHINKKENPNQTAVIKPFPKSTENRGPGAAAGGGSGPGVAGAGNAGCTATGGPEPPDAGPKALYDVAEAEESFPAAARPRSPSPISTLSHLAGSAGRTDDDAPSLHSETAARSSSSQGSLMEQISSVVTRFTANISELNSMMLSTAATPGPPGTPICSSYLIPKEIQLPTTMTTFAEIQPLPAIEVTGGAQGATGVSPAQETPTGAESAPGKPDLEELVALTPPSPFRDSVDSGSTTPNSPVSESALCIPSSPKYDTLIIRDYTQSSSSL
Chain of Metabotropic glutamate receptor 7 (Homo sapiens) (Q14831 whole entry): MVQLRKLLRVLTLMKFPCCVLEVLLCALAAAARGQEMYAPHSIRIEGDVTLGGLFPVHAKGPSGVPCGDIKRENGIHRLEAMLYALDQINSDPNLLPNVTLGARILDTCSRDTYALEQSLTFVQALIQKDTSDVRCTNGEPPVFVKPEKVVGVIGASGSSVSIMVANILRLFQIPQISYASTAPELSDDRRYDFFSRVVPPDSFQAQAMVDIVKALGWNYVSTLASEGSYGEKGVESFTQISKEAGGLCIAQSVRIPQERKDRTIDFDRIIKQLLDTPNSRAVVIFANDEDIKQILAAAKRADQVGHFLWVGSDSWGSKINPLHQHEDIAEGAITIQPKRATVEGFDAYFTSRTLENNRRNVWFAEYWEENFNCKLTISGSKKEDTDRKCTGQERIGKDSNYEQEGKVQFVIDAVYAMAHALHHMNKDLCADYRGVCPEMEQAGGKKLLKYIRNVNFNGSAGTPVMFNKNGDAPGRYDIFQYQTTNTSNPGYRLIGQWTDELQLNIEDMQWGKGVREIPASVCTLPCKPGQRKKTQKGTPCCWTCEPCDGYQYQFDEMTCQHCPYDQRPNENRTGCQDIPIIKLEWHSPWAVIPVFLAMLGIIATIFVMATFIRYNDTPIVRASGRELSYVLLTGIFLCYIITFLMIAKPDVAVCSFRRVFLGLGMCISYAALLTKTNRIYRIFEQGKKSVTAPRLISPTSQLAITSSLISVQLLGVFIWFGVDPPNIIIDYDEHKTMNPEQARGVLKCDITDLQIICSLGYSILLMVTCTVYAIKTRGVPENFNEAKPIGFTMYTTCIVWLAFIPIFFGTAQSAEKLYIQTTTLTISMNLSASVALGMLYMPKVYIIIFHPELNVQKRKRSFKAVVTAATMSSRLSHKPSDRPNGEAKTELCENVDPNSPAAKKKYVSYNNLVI
Chain of Cytochrome P450 2C9 (P11712 whole entry): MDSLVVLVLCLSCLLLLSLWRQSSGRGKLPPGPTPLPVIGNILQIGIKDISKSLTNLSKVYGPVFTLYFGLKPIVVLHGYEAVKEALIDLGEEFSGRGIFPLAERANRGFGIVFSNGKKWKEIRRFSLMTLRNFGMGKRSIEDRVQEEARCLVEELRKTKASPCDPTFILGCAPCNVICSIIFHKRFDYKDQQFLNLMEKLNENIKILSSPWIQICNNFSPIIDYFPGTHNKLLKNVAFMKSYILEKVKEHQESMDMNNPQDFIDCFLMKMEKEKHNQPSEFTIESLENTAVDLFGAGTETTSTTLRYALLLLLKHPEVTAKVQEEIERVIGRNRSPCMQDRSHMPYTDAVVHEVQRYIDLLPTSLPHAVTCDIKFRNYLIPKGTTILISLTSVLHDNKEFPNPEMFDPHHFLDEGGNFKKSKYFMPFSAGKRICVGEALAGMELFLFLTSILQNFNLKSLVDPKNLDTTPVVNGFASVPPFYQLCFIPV
Chain of Metabotropic glutamate receptor 2 (Homo sapiens) (Q14416 19-872 limits assumed): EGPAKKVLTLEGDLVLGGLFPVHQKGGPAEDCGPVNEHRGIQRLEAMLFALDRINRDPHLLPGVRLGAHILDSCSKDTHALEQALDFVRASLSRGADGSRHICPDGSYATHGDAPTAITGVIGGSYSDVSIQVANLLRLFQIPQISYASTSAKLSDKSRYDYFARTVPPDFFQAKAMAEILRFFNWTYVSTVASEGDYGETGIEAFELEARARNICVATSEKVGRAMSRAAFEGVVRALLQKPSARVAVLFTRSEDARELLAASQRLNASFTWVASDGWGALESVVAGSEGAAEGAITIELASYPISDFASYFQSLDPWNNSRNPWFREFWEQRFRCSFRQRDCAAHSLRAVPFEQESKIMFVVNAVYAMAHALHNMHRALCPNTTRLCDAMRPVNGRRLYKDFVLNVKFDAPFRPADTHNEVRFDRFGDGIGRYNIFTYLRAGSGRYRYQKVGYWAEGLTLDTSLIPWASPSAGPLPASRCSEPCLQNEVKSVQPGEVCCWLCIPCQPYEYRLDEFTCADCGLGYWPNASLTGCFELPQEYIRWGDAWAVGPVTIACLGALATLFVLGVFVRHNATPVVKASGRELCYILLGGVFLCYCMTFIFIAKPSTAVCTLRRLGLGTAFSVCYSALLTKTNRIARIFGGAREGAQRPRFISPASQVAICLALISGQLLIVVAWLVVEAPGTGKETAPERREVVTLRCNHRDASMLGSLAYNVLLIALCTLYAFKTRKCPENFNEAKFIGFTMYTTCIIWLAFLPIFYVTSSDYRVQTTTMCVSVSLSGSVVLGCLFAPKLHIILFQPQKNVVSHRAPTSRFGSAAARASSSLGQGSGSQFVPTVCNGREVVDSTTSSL

O=C(Nc1cncc(Oc2cncc(F)c2)n1)c1cccnc1
IC50 [1]: > 30000 nM

O=C(Nc1cncc(Oc2cncc(F)c2)n1)c1ccsc1
%max [2]: 0.1%

O=C(Nc1cncc(Oc2cncc(F)c2)n1)c1cc(Cl)cc(Cl)c1
IC50 [1]: > 30000 nM

Cc1cc(C(=O)Nc2cncc(Oc3cncc(F)c3)n2)cs1
IC50 [1]: 990 nM | %max [2]: 1.1%

O=C(Nc1cncc(Oc2cncnc2)n1)c1cc(Cl)ccn1
concentration at 1 h [3]: 1310 nM | IC50 [4]: > 30000 nM | Vd [5]: 2.7 L/kg | Fu [6]: 0.12 | Papp [7]: 71.4 ×10⁻⁶ cm/s | concentration at 1 h [8]: 1690 nM | concentration at 0.25 h [9]: 3990 nM | Fu [10]: 0.054 | Fu [11]: 0.167 | IC50 [12]: > 30000 nM | Papp [13]: 45 ×10⁻⁶ cm/s | Papp [14]: 66.8 ×10⁻⁶ cm/s | bioavailability [15]: 48% | Activity [16]: inactive | Activity [17]: inactive | Activity [18]: inactive | concentration at 1 h [19]: 920 nM | Tmax [20]: 4 h | IC50 [1]: 62.4 nM | Activity [21]: Active | concentration at 1 h [22]: 2800 nM | Activity [23]: inactive | Ki [24]: 37 nM | concentration at 0.25 h [25]: 6210 nM | Fu [26]: 0.179 | concentration at 0.5 h [27]: 3000 nM | Activity [28]: inactive | AUC [29]: 1.73 µM·h | %max [2]: 1.6% | concentration at 0.5 h [30]: 3690 nM | clearance [31]: 30.2 mL/min/kg | half-life [32]: 3.22 h | IC50 [33]: 600 nM | Ratio [34]: 1.07 | concentration at 1 h [35]: 1450 nM | IC50 [36]: 85 nM | Cmax [37]: 1120 nM | AUC [38]: 8.37 µM·h | Ratio [39]: 0.89 | Papp [40]: 50.4 ×10⁻⁶ cm/s | Activity [41]: inactive | IC50 [42]: > 30000 nM | Activity [43]: inactive | Kp at 1 h [44]: 1.6

Cc1cccc(C(=O)Nc2cncc(Oc3cncc(F)c3)n2)n1
IC50 [1]: > 30000 nM

Cc1cccc(C(=O)Nc2cncc(Oc3cncc(F)c3)n2)c1
IC50 [1]: 199 nM | %max [2]: 2.1%

O=C(Nc1cncc(Oc2cncc(F)c2)n1)c1cc(Cl)ccn1
IC50 [1]: 111 nM | %max [2]: 2%

O=C(Nc1cncc(Oc2cncnc2)n1)c1ccccc1
IC50 [1]: > 10000 nM | %max [2]: 12%

O=C(Nc1cncc(Oc2cncc(F)c2)n1)c1cc(F)cc(F)c1
IC50 [1]: > 30000 nM

O=C(Nc1cncc(Oc2cncc(F)c2)n1)c1cc(F)cc(Cl)c1
IC50 [1]: > 10000 nM | %max [2]: 48%
